Data on 2 compounds can be found in paper PMC11785709, “Angelica gigas Nakai (Korean Dang-gui) Root Alcoholic Extracts in Health Promotion and Disease Therapy – active Phytochemicals and In Vivo Molecular Targets” (Pharmaceutical Research, 2025).

Test [1] deals with serotonin (5-hydroxytryptamine) level. Further details: method as in PMID 19801740. The conditions noted are these: DOH gavage, highest at 10 mg DOH/kg in frontal cortex and striatum; cited from earlier work.
In another test the target is T1, IRAK1 (Homo sapiens, UniProt P51617).
T1 construct: purchased Reaction Biology
T1 sequence (P51617 whole entry): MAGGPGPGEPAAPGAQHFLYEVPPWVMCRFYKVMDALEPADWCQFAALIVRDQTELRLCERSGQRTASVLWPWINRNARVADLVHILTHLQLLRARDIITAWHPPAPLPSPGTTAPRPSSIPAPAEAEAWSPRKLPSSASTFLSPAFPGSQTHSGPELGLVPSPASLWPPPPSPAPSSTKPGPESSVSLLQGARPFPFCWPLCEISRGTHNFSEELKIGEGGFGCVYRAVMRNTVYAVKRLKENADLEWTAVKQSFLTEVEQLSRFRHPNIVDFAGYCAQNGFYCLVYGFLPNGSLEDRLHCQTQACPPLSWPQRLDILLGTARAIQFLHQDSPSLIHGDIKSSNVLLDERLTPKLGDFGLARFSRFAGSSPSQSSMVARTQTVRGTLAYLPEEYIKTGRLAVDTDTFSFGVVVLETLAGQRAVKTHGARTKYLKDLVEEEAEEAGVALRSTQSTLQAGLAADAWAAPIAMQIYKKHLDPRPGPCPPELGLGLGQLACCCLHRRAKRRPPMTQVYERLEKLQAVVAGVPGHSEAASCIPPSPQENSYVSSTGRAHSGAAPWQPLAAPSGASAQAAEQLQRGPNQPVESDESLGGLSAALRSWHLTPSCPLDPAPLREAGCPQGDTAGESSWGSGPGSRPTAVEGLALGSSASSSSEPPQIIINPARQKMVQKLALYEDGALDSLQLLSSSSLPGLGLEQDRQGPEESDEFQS
The test is described as follows: Reaction Biology kinase activity inhibition. The conditions noted are these: initial screening. Type of test: biochemical. The text has this: (§1) The second screening was the Reaction Biology® (Malvern, PA) kinase activity inhibition tests, which screened for more than 600 protein kinases and lipid kinases, using miniaturized radioisotope-based assay platform with γ-^33P-ATP, followed by confirmation with IC50 kinase profiling service with 5 concentrations of test compound (i.e., DOH and DA) with curve fitting.

For a further test, the target named is T2, c-MET (Y1235D) (Homo sapiens, UniProt P08581, Y1235D).
T2 construct: purchased Reaction Biology
As to the kind of experiment: Reaction Biology kinase activity inhibition. It is filed as biochemical. As to conditions: initial screening.
Source text: as §1

The target of the next test is T3, LKB1 (STK11) (Homo sapiens, UniProt Q15831).
T3 construct: purchased Eurofins DiscoverX (KINOMEscan)
T3 sequence (Q15831 whole entry): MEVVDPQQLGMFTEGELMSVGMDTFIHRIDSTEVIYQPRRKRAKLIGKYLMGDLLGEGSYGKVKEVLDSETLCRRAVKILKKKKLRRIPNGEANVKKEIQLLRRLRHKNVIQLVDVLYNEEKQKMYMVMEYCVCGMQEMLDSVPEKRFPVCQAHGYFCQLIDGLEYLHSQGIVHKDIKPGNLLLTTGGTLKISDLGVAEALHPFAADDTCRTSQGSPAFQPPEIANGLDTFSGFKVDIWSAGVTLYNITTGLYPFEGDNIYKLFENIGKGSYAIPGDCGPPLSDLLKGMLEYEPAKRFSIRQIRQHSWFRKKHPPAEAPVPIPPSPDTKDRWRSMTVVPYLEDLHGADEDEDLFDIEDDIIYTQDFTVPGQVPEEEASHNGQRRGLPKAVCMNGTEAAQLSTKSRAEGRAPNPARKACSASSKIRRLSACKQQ
As to the kind of experiment: KINOMEscan competition binding. The protocol:
(§2) Two distinct platforms were used for initial screening with 50 µM DOH vs. DMSO vehicle. The first was the Eurofins DiscoverX KINOMEscan® (Freemont, CA USA) profiling platform, which employed a proprietary active site-directed competition binding assay to quantitatively measure interactions between a test compound (i.e., DOH) and 468 human protein kinases and disease relevant mutant variants either directly (sterically) or indirectly (allosterically) to prevent a kinase binding to its immobilized substrate (ligand). The top 8 hits were subjected to secondary screening verification by DOH concentration-titration for dissociation constant (Kd). For ROCK1 and ROCK2, DA was chosen for Kd titration as well, because it is ~ 10 × higher than D in peripheral circulation due to its resistance to hydrolysis by carboxyesterase-2 (Fig. 1C).

The next test has as its target T4, PIP5K1A (Homo sapiens, UniProt Q99755).
T4 construct: purchased Eurofins DiscoverX (KINOMEscan)
The test is described as follows: KINOMEscan competition binding. As to conditions: initial screening, DOH 50 µM; read-out: Substrate bound % Control. Here is the method:
as §2

In another test the target is T5, PIK3CG (Homo sapiens, UniProt P48736).
T5 construct: purchased Eurofins DiscoverX (KINOMEscan)
The test is described as follows: KINOMEscan competition binding. As to conditions: initial screening, DOH 50 µM; read-out: Substrate bound % Control. Here is the method:
as §2

Another test has as its target T6, CDC2L1 (CDK11B) (Homo sapiens, UniProt P21127).
T6 construct: purchased Eurofins DiscoverX (KINOMEscan)
The test is described as follows: KINOMEscan competition binding. The protocol: as §2

Another test has as its target T7, DYRK1B (Homo sapiens, UniProt Q9Y463).
T7 construct: purchased Eurofins DiscoverX (KINOMEscan)
As to the kind of experiment: KINOMEscan competition binding. As to conditions: initial screening, DOH 50 µM; read-out: Substrate bound % Control. Here is the method:
as §2

A further test deals with T8, GRK4 (Homo sapiens, UniProt P32298).
T8 construct: purchased Eurofins DiscoverX (KINOMEscan)
The test is described as follows: KINOMEscan competition binding. As to conditions: initial screening, DOH 50 µM; read-out: Substrate bound % Control. Here is the method:
as §2

A further test deals with T9, PIK3C2G (Homo sapiens, UniProt O75747).
T9 construct: purchased Eurofins DiscoverX (KINOMEscan)
The test is described as follows: KINOMEscan competition binding. The conditions noted are these: initial screening, DOH 50 µM; read-out: Substrate bound % Control. The protocol:
as §2

The target in test [2] is T10, JAK2(JH1domain-catalytic) (Homo sapiens, UniProt O60674).
T10 construct: JAK2(JH1domain-catalytic); purchased Eurofins DiscoverX (KINOMEscan)
The test is described as follows: KINOMEscan competition binding. As to conditions: initial screening, DOH 50 µM; read-out: Substrate bound % Control. Here is the method: as §2

Another test has as its target T11, BIKE (BMP2K) (Homo sapiens, UniProt Q9NSY1).
T11 construct: purchased Eurofins DiscoverX (KINOMEscan)
The test is described as follows: KINOMEscan competition binding. The conditions noted are these: initial screening, DOH 50 µM; read-out: Substrate bound % Control. Here is the method:
as §2

The target in the next test is T12, SRPK3 (Homo sapiens, UniProt Q9UPE1).
T12 construct: purchased Eurofins DiscoverX (KINOMEscan)
As to the kind of experiment: KINOMEscan competition binding. As to conditions: initial screening, DOH 50 µM; read-out: Substrate bound % Control. The protocol: as §2

Another test concerns the target T13, YSK4 (MAP3K19) (Homo sapiens, UniProt Q56UN5).
T13 construct: purchased Eurofins DiscoverX (KINOMEscan)
The test is described as follows: KINOMEscan competition binding. As to conditions: initial screening, DOH 50 µM; read-out: Substrate bound % Control. Here is the method:
as §2

In test [3] the target is T14, JAK3(JH1domain-catalytic) (Homo sapiens, UniProt P52333).
T14 construct: JAK3(JH1domain-catalytic); purchased Eurofins DiscoverX (KINOMEscan)
As to the kind of experiment: KINOMEscan competition binding. As to conditions: initial screening, DOH 50 µM; read-out: Substrate bound % Control. Here is the method: as §2

For a further test, the target named is T15, RIOK1 (Homo sapiens, UniProt Q9BRS2).
T15 construct: purchased Eurofins DiscoverX (KINOMEscan)
T15 sequence (Q9BRS2 whole entry): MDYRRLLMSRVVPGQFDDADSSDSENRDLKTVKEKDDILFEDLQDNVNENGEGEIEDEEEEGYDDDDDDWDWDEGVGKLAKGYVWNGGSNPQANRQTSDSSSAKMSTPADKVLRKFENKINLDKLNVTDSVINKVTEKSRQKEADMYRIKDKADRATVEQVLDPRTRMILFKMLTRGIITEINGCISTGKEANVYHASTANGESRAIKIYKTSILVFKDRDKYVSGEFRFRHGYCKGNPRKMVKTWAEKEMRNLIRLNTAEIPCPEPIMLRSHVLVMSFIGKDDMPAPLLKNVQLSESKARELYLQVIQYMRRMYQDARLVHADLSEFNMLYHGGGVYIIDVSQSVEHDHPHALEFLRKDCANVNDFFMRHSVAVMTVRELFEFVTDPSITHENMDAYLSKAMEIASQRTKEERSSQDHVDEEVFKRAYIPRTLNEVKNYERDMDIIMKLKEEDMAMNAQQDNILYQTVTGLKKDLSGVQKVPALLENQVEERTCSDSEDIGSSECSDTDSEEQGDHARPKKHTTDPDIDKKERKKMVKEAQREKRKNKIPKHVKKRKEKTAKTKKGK
The test is described as follows: KINOMEscan competition binding. As to conditions: initial screening, DOH 50 µM; read-out: Substrate bound % Control. The protocol:
as §2

For the next test, the target named is T16, ERK4 (MAPK4) (Homo sapiens, UniProt P31152).
T16 construct: purchased Eurofins DiscoverX (KINOMEscan)
T16 sequence (P31152 whole entry): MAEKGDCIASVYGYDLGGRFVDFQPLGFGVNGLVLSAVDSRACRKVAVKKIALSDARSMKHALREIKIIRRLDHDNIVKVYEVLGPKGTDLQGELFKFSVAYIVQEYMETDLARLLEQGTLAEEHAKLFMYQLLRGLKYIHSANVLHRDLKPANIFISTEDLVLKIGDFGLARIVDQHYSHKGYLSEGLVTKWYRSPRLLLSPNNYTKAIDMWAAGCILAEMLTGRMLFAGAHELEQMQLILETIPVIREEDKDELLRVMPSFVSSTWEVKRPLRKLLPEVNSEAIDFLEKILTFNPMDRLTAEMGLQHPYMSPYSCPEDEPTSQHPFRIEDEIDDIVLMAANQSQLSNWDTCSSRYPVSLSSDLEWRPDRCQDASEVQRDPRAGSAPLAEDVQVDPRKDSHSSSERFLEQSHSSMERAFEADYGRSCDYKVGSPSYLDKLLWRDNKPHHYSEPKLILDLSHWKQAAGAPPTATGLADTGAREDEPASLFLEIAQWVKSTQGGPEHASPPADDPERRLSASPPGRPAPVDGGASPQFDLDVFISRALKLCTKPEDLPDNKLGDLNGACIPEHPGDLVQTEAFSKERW
As to the kind of experiment: KINOMEscan competition binding. Here is the method: as §2

The next test relates to CLP microbial exposure. The conditions noted are these: ip twice at 2 h and 4 h after CLP; cited from earlier work.
Another test relates to human MAO-A. More on the design: method as in PMID 28109809. The conditions noted are these: cited from earlier work; for IC50: read-out: MAO-A inhibition IC50.
In the next test the test system is GDH. Further details: method as in PMID 36455296. The conditions noted are these: read-out: GDH inhibition IC50; cited from earlier work.
In the next test the test system is DSS-induced colitis. Further details: method as in PMID 30917627. The conditions noted are these: ip every other day 0.4 and 4 mg/kg; cited from earlier work.
The mark [4] stands for this setting: DOH (50 µM), Data 1 and Data 2, read-out: % Enzyme Activity (relative to DMSO controls).
Setting [5] is: read-out: Substrate bound % Control.
[6] abbreviates: validation Kd titration, 0.003 to 50 µM.

Several values for one entry are separate records, joined by “and”; a condition that tells them apart may be missing. Equal entries are not always repeated.

T6 sequence (P21127 whole entry): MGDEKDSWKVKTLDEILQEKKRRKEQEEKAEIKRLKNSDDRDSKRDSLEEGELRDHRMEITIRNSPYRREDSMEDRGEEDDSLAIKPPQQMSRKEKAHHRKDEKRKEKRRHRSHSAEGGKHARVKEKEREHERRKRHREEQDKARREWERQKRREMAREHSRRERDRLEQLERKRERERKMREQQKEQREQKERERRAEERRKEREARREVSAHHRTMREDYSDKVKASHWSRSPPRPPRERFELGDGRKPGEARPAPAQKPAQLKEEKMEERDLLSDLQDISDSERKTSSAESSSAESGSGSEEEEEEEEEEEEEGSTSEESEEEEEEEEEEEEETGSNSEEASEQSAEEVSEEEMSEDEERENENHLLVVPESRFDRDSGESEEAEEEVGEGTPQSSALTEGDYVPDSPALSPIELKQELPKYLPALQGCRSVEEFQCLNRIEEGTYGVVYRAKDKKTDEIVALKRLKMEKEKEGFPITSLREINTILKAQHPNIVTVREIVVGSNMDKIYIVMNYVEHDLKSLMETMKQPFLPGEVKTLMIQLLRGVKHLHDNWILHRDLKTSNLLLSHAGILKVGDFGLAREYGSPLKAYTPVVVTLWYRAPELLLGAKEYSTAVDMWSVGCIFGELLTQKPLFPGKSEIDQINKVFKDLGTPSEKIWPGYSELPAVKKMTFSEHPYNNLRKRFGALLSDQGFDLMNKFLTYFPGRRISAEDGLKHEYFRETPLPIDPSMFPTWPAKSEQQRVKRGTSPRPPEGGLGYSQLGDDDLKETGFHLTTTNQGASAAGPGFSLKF
T11 sequence (Q9NSY1 whole entry): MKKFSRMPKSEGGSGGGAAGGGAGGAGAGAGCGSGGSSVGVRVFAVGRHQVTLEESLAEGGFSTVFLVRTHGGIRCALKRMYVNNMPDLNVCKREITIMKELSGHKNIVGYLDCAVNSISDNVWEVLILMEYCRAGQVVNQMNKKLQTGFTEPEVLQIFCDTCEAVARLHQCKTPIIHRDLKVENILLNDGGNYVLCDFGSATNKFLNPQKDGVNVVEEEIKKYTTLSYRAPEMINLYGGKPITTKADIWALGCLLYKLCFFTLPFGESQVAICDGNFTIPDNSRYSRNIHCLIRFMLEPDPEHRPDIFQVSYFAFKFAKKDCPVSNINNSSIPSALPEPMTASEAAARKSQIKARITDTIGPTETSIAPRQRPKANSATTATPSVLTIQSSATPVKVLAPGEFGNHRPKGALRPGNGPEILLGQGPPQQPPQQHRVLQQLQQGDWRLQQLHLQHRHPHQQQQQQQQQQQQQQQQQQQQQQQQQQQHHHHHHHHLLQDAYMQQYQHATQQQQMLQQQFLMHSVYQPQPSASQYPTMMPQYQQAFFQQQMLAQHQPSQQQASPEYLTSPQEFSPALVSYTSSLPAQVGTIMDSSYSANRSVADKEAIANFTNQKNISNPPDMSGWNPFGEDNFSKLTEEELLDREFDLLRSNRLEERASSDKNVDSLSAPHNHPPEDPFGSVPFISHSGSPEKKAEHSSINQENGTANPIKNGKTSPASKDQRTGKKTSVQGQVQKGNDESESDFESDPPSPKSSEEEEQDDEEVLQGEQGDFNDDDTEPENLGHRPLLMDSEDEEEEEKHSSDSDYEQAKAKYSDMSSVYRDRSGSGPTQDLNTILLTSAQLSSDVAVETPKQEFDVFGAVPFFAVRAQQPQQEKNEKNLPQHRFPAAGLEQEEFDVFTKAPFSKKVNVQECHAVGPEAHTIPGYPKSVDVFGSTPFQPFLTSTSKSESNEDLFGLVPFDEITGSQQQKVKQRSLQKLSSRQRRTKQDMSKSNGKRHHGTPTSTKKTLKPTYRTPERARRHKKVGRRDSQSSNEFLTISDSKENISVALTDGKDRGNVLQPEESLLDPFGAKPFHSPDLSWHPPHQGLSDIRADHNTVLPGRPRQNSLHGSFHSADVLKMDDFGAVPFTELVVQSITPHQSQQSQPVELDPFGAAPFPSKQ
T7 sequence (Q9Y463 whole entry): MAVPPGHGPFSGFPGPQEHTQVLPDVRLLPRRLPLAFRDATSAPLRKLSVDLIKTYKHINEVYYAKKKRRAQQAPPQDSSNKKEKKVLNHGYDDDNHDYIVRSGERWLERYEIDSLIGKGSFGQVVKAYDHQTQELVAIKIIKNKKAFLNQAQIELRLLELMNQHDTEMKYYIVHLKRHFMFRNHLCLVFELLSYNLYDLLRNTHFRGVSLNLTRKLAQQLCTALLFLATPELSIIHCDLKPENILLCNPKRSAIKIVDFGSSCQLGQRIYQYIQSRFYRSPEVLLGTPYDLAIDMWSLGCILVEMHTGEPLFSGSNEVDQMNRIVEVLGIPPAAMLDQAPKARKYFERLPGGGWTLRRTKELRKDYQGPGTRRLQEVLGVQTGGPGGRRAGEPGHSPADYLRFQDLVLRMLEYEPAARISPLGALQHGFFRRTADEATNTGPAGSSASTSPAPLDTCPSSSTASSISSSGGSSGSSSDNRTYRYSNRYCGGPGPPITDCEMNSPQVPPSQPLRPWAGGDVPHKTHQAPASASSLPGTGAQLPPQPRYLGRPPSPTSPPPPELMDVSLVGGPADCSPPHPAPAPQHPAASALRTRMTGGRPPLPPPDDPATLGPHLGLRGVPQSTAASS

The term inhibition denotes the drop in the measured response relative to a control, in per cent. The term Kd denotes the free concentration of one partner at which half of the binding sites on the other are occupied at equilibrium, for simple one-to-one binding. For orientation: IC50 means the point on the concentration scale where inhibition reaches its midpoint. Regarding `CC1(C)Oc2cc3oc(=O)ccc3cc2C[C@@H]1O` [DOH, decursinol], the “serotonin (5-hydroxytryptamine) level in brain” value in test [1] is “increase”. Moreover, the inhibition at 50 µM on IRAK1 (DOH 50 µM) amounted to 38.5%; at c-MET (Y1235D) (DOH 50 µM), 30.7%. The “% Enzyme Activity (relative to DMSO controls)” value on IRAK1 (DOH (50 µM), Data 1 and Data 2) came out at 58.4%; on c-MET (Y1235D) (DOH (50 µM), Data 1 and Data 2), 69.0%. Also, the remaining activity at 50 µM stood at 64.5% at IRAK1 (setting [4]) and 69.5% on c-MET (Y1235D) (setting [4]). Besides, the remaining binding at 50 µM on LKB1 (STK11) (setting [5]) came out at 7.6%; at PIP5K1A, 47%; at PIK3CG, 46%; on CDC2L1 (CDK11B) (setting [5]), 19%; on DYRK1B, 28%; on GRK4 it was 47%. Besides, the remaining binding at 50 µM at PIK3C2G was found to be 32%; in [2] it was 49%; on BIKE (BMP2K), 45%; on SRPK3 it was 45%; on YSK4 (MAP3K19) it was 34%; in test [3] it was 45%. Besides, the remaining binding at 50 µM at RIOK1 is 50%; at ERK4 (MAPK4) (setting [5]), 3.3%. In addition, the Kd on LKB1 (STK11) (setting [6]), at CDC2L1 (CDK11B) (setting [6]) and at ERK4 (MAPK4) (setting [6]) was more than 50 µM in each case. Also, the “dose giving plateau of therapeutic benefit” value with CLP microbial exposure was not below 10 mg/kg. Also, the MAO-A initial screen result with human MAO-A (at 10 μM) is “failed the initial screen”. Further, the IC50 with human MAO-A was more than 10 µM.

`C/C=C(/C)C(=O)O[C@H]1Cc2cc3ccc(=O)oc3cc2OC1(C)C` [DA, decursinol angelate]: the half-maximal inhibitory concentration (IC50) with GDH was ~1.4 µM and 1.4 µM; in the test on human MAO-A, 12.8 µM. Moreover, the severity of colitis entry in the test on DSS-induced colitis is recorded as “attenuated the severity of colitis”.
